Laboratory results from patent US20110207660A1, “PHARMACEUTICAL FORMULATIONS OF AN HCV PROTEASE INHIBITOR IN A SOLID MOLECULAR DISPERSION” (Schering Corporation, priority 2008, published 2011).

Legend:
[1] = Clinical Study 2: once-a-day 300 mg Compound I with 100 mg ritonavir for 10 days, healthy human subjects, fed; details: in vivo, steady state, Day 10, formulation G tablets 3×100 mg QD + 100 mg ritonavir QD, 8 healthy human subjects, read-out: Cmin Range
Procedure: The pharmacokinetic profile of Compound I following once-a-day oral administration of 300 mg Compound I in a formulation of the present invention in tablet form (specifically exemplary formulation G described in Table 3A, 3×100 mg, QD) in combination with 100 mg ritonavir (RTV, 1×100 mg, QD) for 10-days to healthy human subjects under fed conditions (i.e., following a standard meal) was determined. […] Blood was collected from each subject pre-dose (on Days 7, 8, and 9), as well as 0.5, 1, 1.5, 2, 3, 4, 5, 6, 7, 8, 10, 12, 16, and 24 hr post-dose (on Day 10) for determining the concentration of Compound I in the plasma and to calculate the pharmacokinetic parameters for each formulation.

[2] = in vitro IC90 of Compound I; details: reference line in FIGS. 5A and 5B
[3] = Biopharmaceutics Classification System class; format: physicochemical; details: low solubility and low permeability

CCCC[C@H](NC(=O)[C@@H]1[C@@H]2[C@H](CN1C(=O)[C@@H](NC(=O)NC1(CS(=O)(=O)C(C)(C)C)CCCCC1)C(C)(C)C)C2(C)C)C(=O)C(=O)NC1CC1 [Compound I]
concentration at 10 days [1]: 167 to 426 ng/mL | in vitro IC90 [2]: 28 ng/mL | Biopharmaceutics Classification System class [3]: Class IV
